Earlier results as cited in paper PMC12443862, “The second life of Citrus bergamia: bioavailability analysis of a new formulation using waste-based microencapsulation as a valuable source of bioactive compounds” (Pharmacological Reports, 2025).

Design: method as in PMID 25200135
Conditions: hesperidin micronization (5.1 μm)

For `COc1ccc([C@@H]2CC(=O)c3c(O)cc(O[C@@H]4O[C@H](CO[C@@H]5O[C@@H](C)[C@H](O)[C@@H](O)[C@H]5O)[C@@H](O)[C@H](O)[C@H]4O)cc3O2)cc1O` [hesperidin], the “Increase of flavanone's bioavailability compared to conventional hesperidin (32.8 μm)” value is given as 2 fold.
